# Source: US20060063759A1, “Tricyclic steroid hormone nuclear receptor modulators” (priority 2002, published 2006)
# Assays:
# human MR = target: T1, human MR (Homo sapiens, UniProt P08235); assay: Mineralocorticoid Receptor Binding Assay ([3H]-aldosterone); settings: [3H]-aldosterone binding, human MR expressed in Sf9 cells; read-out: MR Ki
# T1 construct: The full length human MR gene is cloned from a human kidney or human brain cDNA library; His tag from the pAcHLT vector (own knowledge); made in house; host or cells: Sf9 insect cells (baculovirus, pAcHLT transfer vector)
# T1 sequence (P08235 1-984): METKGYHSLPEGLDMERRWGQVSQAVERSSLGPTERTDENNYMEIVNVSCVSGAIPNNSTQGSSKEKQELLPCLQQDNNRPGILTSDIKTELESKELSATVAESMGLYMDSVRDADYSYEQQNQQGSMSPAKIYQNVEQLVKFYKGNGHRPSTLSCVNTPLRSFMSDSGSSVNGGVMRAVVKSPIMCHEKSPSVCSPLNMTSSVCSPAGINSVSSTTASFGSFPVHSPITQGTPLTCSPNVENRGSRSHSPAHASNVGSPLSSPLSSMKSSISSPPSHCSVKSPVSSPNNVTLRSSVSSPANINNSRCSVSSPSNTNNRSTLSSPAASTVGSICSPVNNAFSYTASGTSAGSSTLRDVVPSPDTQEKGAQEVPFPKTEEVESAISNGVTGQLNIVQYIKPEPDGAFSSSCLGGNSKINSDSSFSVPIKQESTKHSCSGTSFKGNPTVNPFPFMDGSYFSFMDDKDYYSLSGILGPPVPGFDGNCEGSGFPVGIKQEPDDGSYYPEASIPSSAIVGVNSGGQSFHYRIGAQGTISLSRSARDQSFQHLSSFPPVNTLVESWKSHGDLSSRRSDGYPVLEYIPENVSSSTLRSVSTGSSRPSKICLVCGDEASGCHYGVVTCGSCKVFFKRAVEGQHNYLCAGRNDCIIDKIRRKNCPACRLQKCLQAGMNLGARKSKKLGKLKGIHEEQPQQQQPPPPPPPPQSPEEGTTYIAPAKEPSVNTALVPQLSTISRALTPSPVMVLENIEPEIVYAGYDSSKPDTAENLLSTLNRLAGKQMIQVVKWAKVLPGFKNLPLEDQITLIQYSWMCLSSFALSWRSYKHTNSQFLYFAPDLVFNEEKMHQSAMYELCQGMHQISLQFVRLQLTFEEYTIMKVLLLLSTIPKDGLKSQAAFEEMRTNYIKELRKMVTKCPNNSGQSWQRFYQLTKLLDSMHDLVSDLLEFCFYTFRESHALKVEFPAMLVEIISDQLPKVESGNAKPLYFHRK
# Outline: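 Receptor source: freeze-thaw lysate of baculovirus-infected Sf9 cells carrying full-length human MR, 20-25 μg protein. Incubation ~16 h at 4 °C with shaking, pH 7.5 buffer containing 30 mM sodium molybdate and 10% glycerol.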
# glucocorticoid receptor = target: T2, glucocorticoid receptor (Homo sapiens, UniProt P04150); assay: Glucocorticoid Receptor Binding Assay ([3H]-dexamethasone, A549 cell extract); settings: [3H]-dexamethasone binding, read-out: GR Ki
# T2 construct: containing 50-200 ug of A549 cell extract and 1.86 nM [^3H]-dexamethasone; host or cells: A549 human lung epithelial cells (sonicated cell extract)
# T2 sequence (P04150 1-777): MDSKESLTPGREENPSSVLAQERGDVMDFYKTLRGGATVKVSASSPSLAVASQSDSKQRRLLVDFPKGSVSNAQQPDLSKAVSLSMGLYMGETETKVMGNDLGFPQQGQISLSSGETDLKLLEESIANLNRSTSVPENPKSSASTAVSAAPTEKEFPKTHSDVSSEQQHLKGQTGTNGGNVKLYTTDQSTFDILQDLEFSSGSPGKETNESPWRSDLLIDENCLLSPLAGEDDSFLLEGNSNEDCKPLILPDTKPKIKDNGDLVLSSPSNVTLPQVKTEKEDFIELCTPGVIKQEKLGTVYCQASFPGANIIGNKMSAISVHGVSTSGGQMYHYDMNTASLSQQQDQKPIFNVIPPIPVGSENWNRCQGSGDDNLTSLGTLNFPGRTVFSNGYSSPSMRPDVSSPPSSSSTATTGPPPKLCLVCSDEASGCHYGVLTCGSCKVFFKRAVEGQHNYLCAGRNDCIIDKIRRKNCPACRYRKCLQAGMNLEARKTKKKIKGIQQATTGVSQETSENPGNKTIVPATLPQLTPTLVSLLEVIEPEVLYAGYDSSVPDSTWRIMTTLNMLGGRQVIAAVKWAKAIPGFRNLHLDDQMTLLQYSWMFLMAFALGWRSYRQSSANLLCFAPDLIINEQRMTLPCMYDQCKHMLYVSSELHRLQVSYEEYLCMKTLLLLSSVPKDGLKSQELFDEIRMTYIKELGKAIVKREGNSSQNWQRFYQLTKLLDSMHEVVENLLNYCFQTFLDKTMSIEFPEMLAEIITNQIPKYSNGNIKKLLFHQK
# Outline: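 Displacement of [3H]-dexamethasone (1.86 nM) from glucocorticoid receptor in sonicated A549 lung epithelial cell extracts, 16 h at 4 °C, pH 7.2 molybdate-containing buffer. Bound radioactivity was scintillation-counted after charcoal/dextran stripping of free ligand.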
Structure (SMILES),Ki (human MR),Ki (glucocorticoid receptor)
CS(=O)(=O)Nc1cccc(/C=C2/c3cccnc3CCc3cccc(F)c32)c1 [Example 557],< 500 nM,< 500 nM
"COc1ccc2c(c1)CCc1cc(OC)ccc1C2=Cc1cccc(O)c1 [Example 193, 3-(2,8-Dimethoxy-10,11-dihydro-dibenzo[a,d]cyclohepten-5-ylidenemethyl)-phenol]",< 500 nM,< 500 nM
CS(=O)(=O)Nc1cccc(CC2c3ccccc3CCc3cccnc32)c1 (centres unmarked) [Example 538],< 500 nM,< 500 nM
Fc1ccc2c(c1)CCc1ncccc1/C2=C\c1cccc(C(F)F)c1 [Example 542],< 500 nM,< 10000 nM
"FC(F)(F)c1ccccc1C=C1c2ccccc2CCc2cc(Cl)ccc21 [Example 174, 2-Chloro-5-(2-trifluoromethyl-benzylidene)-10,11-dihydro-5H-dibenzo[a,d]cycloheptene]",< 500 nM,< 1000 nM
CS(=O)(=O)Nc1cccc(/C=C2\c3ccccc3CSc3cc(F)ccc32)c1 [Example 746],< 500 nM,< 500 nM
Cn1c(=O)[nH]c2cc(/C=C3/c4ccccc4COc4cc(F)ccc43)ccc21 [Example 634],< 500 nM,< 500 nM
CC/C(=C1/c2ccc(OC)cc2COc2ccccc21)c1cccc(NS(C)(=O)=O)c1 [Example 821],< 500 nM,< 500 nM
Fc1cccc(/C=C2\c3ccc(F)cc3CCc3ncccc32)c1 [Example 579],< 500 nM,< 500 nM
CS(=O)(=O)Nc1cccc(/C=C2\c3cccnc3CCc3c(F)cccc32)c1 [Example 574],< 500 nM,< 500 nM
Cc1ccc2c(c1)C(=Cc1ccc(NS(C)(=O)=O)cc1)c1ccccc1CC2 [Example 305],< 500 nM,< 1000 nM
O=c1[nH]c2ccc(/C=C3\c4ccccc4COc4c(F)cccc43)cc2[nH]1 [Example 642],< 500 nM,< 1000 nM
Cc1ccc2c(c1)CCc1ccccc1/C2=C/c1ccc(NS(C)(=O)=O)cc1 [Example 317],< 500 nM,< 10000 nM
Fc1cccc(/C=C2/c3ccc(F)cc3CCc3ncccc32)c1 [Example 583],< 500 nM,< 10000 nM
COc1cccc2c1[C@H](Cc1cccc(NS(C)(=O)=O)c1)c1ccccc1OC2 [Example 737],< 500 nM,< 500 nM
CS(=O)(=O)Nc1cccc(/C=C2/c3ccc(F)cc3CCc3nc(C(F)(F)F)ccc32)c1 [Example 521],< 500 nM,< 500 nM
CSc1cccc2c1CCc1ccccc1C2=Cc1cccc(NS(C)(=O)=O)c1 [Example 319],< 500 nM,< 500 nM
"CS(=O)(=O)Nc1cccc(C=C2c3ccccc3CCc3c(Cl)cccc32)c1 (mixture of isomers) [Example 205(a), N-[3-(1-Chloro-10,11-dihydro-dibenzo[a,d]cyclohepten-5-ylidenemethyl)-phenyl]-methanesulfonamide]",< 500 nM,< 500 nM
CS(=O)(=O)Nc1cccc(/C=C2/c3ccccc3CCc3ccc(O)cc32)c1 [Example 350],< 500 nM,< 500 nM
"CS(=O)(=O)c1cccc(C=C2c3ccccc3CCc3ccccc32)c1 [Example 279, 5-(3-Methanesulfonyl-benzylidene)-10,11-dihydro-5H-dibenzo[a,d]cycloheptene]",< 500 nM,< 10000 nM

Structure (SMILES),Ki (human MR),Ki (glucocorticoid receptor)
CC(C)n1c(=O)[nH]c2cc(/C=C3/c4ccccc4COc4cc(F)ccc43)ccc21 [Example 638],< 500 nM,< 1000 nM
"NC(=O)c1cccc(C=C2c3ccccc3CCc3ccccc32)c1 [Example 84, 3-(10,11-Dihydro-dibenzo[a,d]cyclohepten-5-ylidenemethyl)-benzamide]",< 500 nM,< 10000 nM
Nc1ccc(/C=C2\c3ccc(F)cc3CCc3ncccc32)cc1 [Example 534],< 500 nM,< 10000 nM
CS(=O)(=O)Nc1cccc(/C=C2/c3cccnc3CCc3c(Cl)cccc32)c1 [Example 573],< 500 nM,< 500 nM
Oc1cccc(C=C2c3ccccc3C3CC3c3ccccc32)c1 (centres unmarked) [Example 258],< 500 nM,< 500 nM
CCC(=C1c2ccc(F)cc2CCc2cc(F)ccc21)c1cccc(NS(C)(=O)=O)c1 [Example 776],< 500 nM,< 500 nM
"FC(F)(F)c1cc(CC2c3ccccc3CCc3ccccc32)cc(C(F)(F)F)c1 [Example 141, 5-(3,5-Bis-Trifluoromethyl-benzyl)-10,11-dihydro-5H-dibenzo[a,d]cycloheptene]",< 500 nM,< 500 nM
CS(=O)(=O)Nc1cc(F)cc(/C=C2\c3ccc(F)cc3CCc3nc(CF)ccc32)c1 [Example 597],< 500 nM,< 500 nM
COC(=O)c1ccc2c(c1)CCc1ccccc1/C2=C/c1cccc(NS(C)(=O)=O)c1 [Example 387],< 500 nM,< 500 nM
"CS(=O)(=O)Nc1cccc(C=C2c3ccc(O)cc3CCc3cc(O)ccc32)c1 [Example 192, N-[3-(2,8-Dihydroxy-10,11-dihydro-dibenzo[a,d]cyclohepten-5-ylidenemethyl)-phenyl]-methanesulfonamide]",< 500 nM,< 500 nM
Fc1ccc2c(c1)CCc1ncccc1/C2=C/c1ccccc1F [Example 578],< 500 nM,< 10000 nM
Oc1cccc(/C=C2\c3ccccc3CCc3c(Br)cccc32)c1 [Example 372],< 500 nM,< 1000 nM
CC(C)CC(=C1c2ccccc2CCc2ccccc21)c1cccc(NS(C)(=O)=O)c1 [Example 783],< 500 nM,< 500 nM
COC(=O)c1ccc(/C=C2\c3ccc(F)cc3CCc3ncccc32)cc1 [Example 584],< 1000 nM,< 10000 nM
O=c1[nH]c2cc(/C=C3/c4ccccc4COc4cc(F)ccc43)ccc2n1CCN1CCOCC1 [Example 712],< 500 nM,< 500 nM
CS(=O)(=O)Nc1cccc(/C=C2/c3cc(Cl)ccc3COc3ccccc32)c1 [Example 728],< 500 nM,< 500 nM
Oc1cccc(/C=C2/c3ccccc3CCc3ccncc32)c1 [Example 514],< 1000 nM,< 500 nM
Oc1cccc(/C=C2\c3ccccc3COc3cc(F)ccc32)c1 [Example 628],< 500 nM,< 500 nM
"COc1cccc2c1OCc1ccccc1/C2=C\c1cccc(NS(C)(=O)=O)c1 [Example 271, N-[3-(4-Methoxy-6H-dibenzo[b,e]oxepin-11-ylidenemethyl)-phenyl]-methanesulfonamide]",< 500 nM,< 500 nM
CS(=O)(=O)Nc1cccc(/C=C2\c3ccccc3COc3cc(F)ccc32)c1 [Example 630],< 500 nM,< 500 nM
